Experimental data taken from article PMC7477874, “Targeting L-Proline Uptake as New Strategy for Anti-chagas Drug Development” (Frontiers in Chemistry, 2020).
Values joined by “and” are separate entries in the source; they are usually repeats but may differ in a detail not shown here. Identical values can stand only once. “Also recorded” adds a separate entry of the source. Like-named read-outs stand apart in the source and are kept apart here.

Experiments:
[1] = tested on: T. cruzi epimastigotes (CL strain clone 14); details: cited from earlier work
[2] = tested on: T. cruzi epimastigotes (CL strain clone 14); assay: Growth inhibition assay on T. cruzi epimastigotes; format: cell-based, Trypanosoma cruzi; details: for Effect on parasite growth at the maximum concentration: 100 μM; for Times more active than T4C: T. cruzi epimastigotes, IC50 relative to T4C (890 μM)
Method: T. cruzi CL strain clone 14 epimastigotes (Brener and […], [1965]) were maintained in the exponential growth phase by subculturing every 48 h in Liver Infusion Tryptose (LIT) medium supplemented with 10% FCS (Vitrocell, Campinas, São Paulo, Brazil) at 28 °C. T. cruzi epimastigotes in the exponential growth phase (5.0-6.0 x 10^7 cells mL^-1) were cultured in fresh LIT medium. The cells were treated with different concentrations of drugs or not treated (negative control). A combination of Rotenone (60 μM) and Antimycin (0.5 μM) was used as a positive control for inhibition as previously described. (Magdaleno et al., [2009]) The cells (2.5 x 10^6 mL^-1) were transferred to 96-well culture plates and incubated at 28 °C. Cell proliferation was quantified by reading the optical density (OD) at 620 nm for 8 days. The OD was converted to cell density values (cells per mL) using a linear regression equation previously obtained under the same conditions. The concentration of compounds that inhibited 50% of parasite proliferation (IC50) was determined during the exponential growth phase (4 days) by fitting the data to a typical sigmoidal dose-response curve using OriginPro8. The compounds were evaluated in quadruplicate in each experiment. The results shown here correspond to three independent experiments. As a cell growth inhibition control, growth curves in which […] were added to the culture medium were run in parallel for all experiments.

L-proline transporter = assay: L-Proline transport competition assay in T. cruzi epimastigotes; format: cell-based, Trypanosoma cruzi; details: 3.1 mM analog; for Proline uptake inhibition (in words): 0.31 mM L-proline; for % of Proline inh.: 0.31 mM L-proline (Km), 30 s
Method: Parasites in exponential growth phase were washed three times by centrifugation and resuspended in phosphate buffered saline (PBS), pH 7.4. Cells were counted in a Neubauer chamber, adjusted with the same buffer to a final density of 200 × 10^6 cells/mL and distributed in aliquots of 100 μL (containing 20 × 10^6 cells each). Transport assays were initiated by the addition to the assay tubes of 100 μL of the desired dilution of L-proline in PBS in the presence of […] of L-[3H] proline. Unless otherwise specified, V0 was measured at 28 °C for 30 s by incorporation of 0.75 and 3 mM L-proline traced with 1 μCi of U-^14C-L-Pro (Perkin Elmer). In all cases, proline transport was stopped by addition of […] of cold 50 mM proline in PBS (pH 7.4), and rapid washing by centrifugation at 10,000x g for 2 min. Background values in each experiment were measured by simultaneous addition of radiolabeled L-proline and stop solution as previously described (Silber et al., [2002]). For the competition assays, the transport experiments were performed as described above using the L-Pro concentration corresponding to the Km (0.31 mM). Those conditions were chosen considering an inhibitory activity by structurally related compounds should be competitive, and so, should be evidenced by a change in the […] at L-Pro concentrations close to the Km. Non-competitive inhibitors, if any, should diminish Vmax, which is measured at 10 x Km L-Pro (3.1 mM) (Silber et al., [2002]). […] The analogs were assayed on T. cruzi epimastigotes incubated with proline at the transporter Km concentration (0.31 mM), and the analogs were assayed at concentration 10-fold higher (3.1 mM). […] The oleyl derivate (3k), with an unsaturated fatty tail, has a similar IC50 on T. cruzi epimastigotes compared to the cetyl analog (3j) showing no inhibition in terms of proline uptake (Table 2).  Figure 4 Proline uptake assay. Pro control = Proline control, Pro comp = L-Proline as competitor. 3i-k and 3n = proline level incubated (*p < 0.05) with selected analogs. Pro control (0.31 mM L-proline, [^3H] proline, PBS). Pro Comp (3.1 mM L-proline, [^3H] proline, PBS). Compounds 3i-k and 3n (0.31 mM L-proline, 3.1 mM analog 3x, [^3H] proline, PBS). Stop solution: 50 mM L-proline added after 30 s.

Vero cells = assay: Cytotoxicity assay on Vero cells (MTT); format: cell-based, African green monkey; details: for IC50: Chlorocebus sabaeus, Vero, 48 h, MTT
Method: To evaluate the analogs toxicity, Vero cells previously plated on 96 multi-well plate in DMEM 2% FBS and incubated for 48 h at 37 °C in a humid atmosphere containing 5% CO2, were incubated with […] of DMEM 2% FBS supplemented with each analog for 48 h. The concentration (μM) was different with each analog:
The viability of cells was measured by MTT dye (3-(4,5-Dimethylthiazol-2-yl)-2,5-diphenyltratazolium bromide, Sigma-Aldrich) colorimetric method. Benznidazole and DMSO were used as positive and negative controls, respectively. Data are expressed as means ± SD of the results of three independent assays of each condition.

[3] = Solubility observed in the Vero cytotoxicity assay; format: physicochemical; details: at 50 μM, Vero cytotoxicity assay medium
Method: Vero cells are well established model to test cytotoxicity in vitro because it is an aneuploid and a continuous cell linage. […] Compound 3j was not soluble at 50 μM which made not possible to calculate its IC50.

[4] = Trypanosoma cruzi, 96 h, epimastigotes CL14, IC50 at 4 days, means (SD) from three independent experiments, max. concentration 100 μM, read-out: T. cruzi IC50
[5] = epimastigotes CL14, IC50 at 4 days, means (SD) from three independent experiments, max. concentration 100 μM, read-out: T. cruzi IC50
[6] = Trypanosoma cruzi, epimastigotes, unit given as mM, read-out: T. cruzi epimastigotes IC50 (as restated in the discussion)

SMILES: O=C(Cn1ccnc1[N+](=O)[O-])NCc1ccccc1 [Benznidazole]
- IC50 ([1]; epimastigotes, read-out: T. cruzi IC50): 7 µM

SMILES: CCOC(=O)Cn1cc(CN2CCC[C@H]2C(=O)OC)nn1 [Compound 3a, Methyl ((1-(2-Ethoxy-2-Oxoethyl)-1H-1,2,3-Triazol-4-yl)Methyl)-L-Prolinate]
- IC50 [2, 4]: > 0.1 mM
- Effect on parasite growth at the maximum concentration ([2]; epimastigotes): did not affect the parasite growth; also recorded: inactive

SMILES: CCOC(=O)CCCCn1cc(CN2CCC[C@H]2C(=O)OC)nn1 [Compound 3b, Methyl ((1-(5-Ethoxy-5-Oxopentyl)-1H-1,2,3-Triazol-4-yl)Methyl)-L-Prolinate]
- IC50 [2, 4]: > 0.1 mM
- Effect on parasite growth at the maximum concentration ([2]; epimastigotes): did not affect the parasite growth; also recorded: inactive

SMILES: COC(=O)[C@@H]1CCCN1Cc1cn(Cc2ccccc2)nn1 [Compound 3c, Methyl ((1-Benzyl-1H-1,2,3-Triazol-4-yl)Methyl)-L-Prolinate]
- IC50 [2, 4]: > 0.1 mM
- Effect on parasite growth at the maximum concentration ([2]; epimastigotes): did not affect the parasite growth; also recorded: inactive

SMILES: COC(=O)[C@@H]1CCCN1Cc1cn(C2CCCCC2)nn1 [Compound 3d, Methyl ((1-Cyclohexyl-1H-1,2,3-Triazol-4-yl)Methyl)-L-Prolinate]
- IC50 [2, 4]: > 0.1 mM
- Effect on parasite growth at the maximum concentration ([2]; epimastigotes): did not affect the parasite growth; also recorded: inactive

SMILES: COC(=O)[C@@H]1CCCN1Cc1cn(CCCc2ccccc2)nn1 [Compound 3e, Methyl ((1-(3-Phenylpropyl)-1H-1,2,3-Triazol-4-yl)Methyl)-L-Prolinate]
- IC50 [2, 4]: > 0.1 mM
- Effect on parasite growth at the maximum concentration ([2]; epimastigotes): did not affect the parasite growth; also recorded: inactive

SMILES: COC(=O)[C@@H]1CCCN1Cc1cn(CC=Cc2ccccc2)nn1 [Compound 3f, Methyl ((1-Cinnamyl-1H-1,2,3-Triazol-4-yl)Methyl)-L-Prolinate]
- IC50 [2, 4]: > 0.1 mM
- Effect on parasite growth at the maximum concentration ([2]; epimastigotes): did not affect the parasite growth; also recorded: inactive

SMILES: COC(=O)[C@@H]1CCCN1Cc1cn(Cc2ccc3ccccc3c2)nn1 [Compound 3g, Methyl ((1-(Naphthalen-2-Ylmethyl)-1H-1,2,3-Triazol-4-yl)Methyl)-L-Prolinate]
- IC50 [2, 4]: 0.1 mM
- melting point: 64 to 64.9 °C

SMILES: CCCCCCCCn1cc(CN2CCC[C@H]2C(=O)OC)nn1 [Compound 3h, Methyl ((1-Octyl-1H-1,2,3-Triazol-4-yl)Methyl)-L-Prolinate]
- IC50 [2, 4]: > 0.1 mM
- Effect on parasite growth at the maximum concentration ([2]; epimastigotes): did not affect the parasite growth; also recorded: inactive

SMILES: CCCCCCCCCCn1cc(CN2CCC[C@H]2C(=O)OC)nn1 [Compound 3i, Methyl ((1-Decyl-1H-1,2,3-Triazol-4-yl)Methyl)-L-Prolinate]
- Proline uptake inhibition (in words) (L-proline transporter): markedly reduction of the internalized proline
- Times more active than T4C [2]: 23
- IC50 [2, 4]: < 0.04 mM
- IC50 [2, 5]: < 0.05 mM and 0.038 mM and 0.039 mM
- Selectivity index (IC50 Vero cells / IC50 T. cruzi epimastigotes) (Vero cells): 1.13
- IC50 (Vero cells): 43 µM

SMILES: CCCCCCCCCCCCCCCCn1cc(CN2CCC[C@H]2C(=O)OC)nn1 [Compound 3j, Methyl ((1-Hexadecyl-1H-1,2,3-Triazol-4-yl)Methyl)-L-Prolinate]
- % of Proline inh. (L-proline transporter): 20% and 18^# %
- Times more active than T4C [2]: 36
- IC50 [2, 6]: 0.0245 mM
- Solubility [3]: not soluble
- melting point: 60 to 60.9 °C

SMILES: CCCCCCCC/C=C\CCCCCCCCn1cc(CN2CCC[C@H]2C(=O)OC)nn1 [Compound 3k, Methyl (Z)-((1-(Octadec-9-en-1-yl)-1H-1,2,3-Triazol-4-yl)Methyl)-L-Prolinate]
- % of Proline inh. (L-proline transporter): 0%
- Proline uptake inhibition (in words) (L-proline transporter): no inhibition
- Times more active than T4C [2]: 22
- IC50 [2, 4]: < 0.04 mM
- IC50 [2, 5]: < 0.05 mM and 0.0351 mM
- Selectivity index (IC50 Vero cells / IC50 T. cruzi epimastigotes) (Vero cells): 0.43
- IC50 (Vero cells): 17 µM

SMILES: CCCCCCCCCCCCCCCCCCCCn1cc(CN2CCC[C@H]2C(=O)OC)nn1 [Compound 3l, Methyl ((1-Icosyl-1H-1,2,3-Triazol-4-yl)Methyl)-L-Prolinate]
- IC50 [2, 4]: 0.1 mM
- melting point: 72.7 to 73.7 °C

SMILES: COC(=O)[C@@H]1CCCN1Cc1cn(CC=C(C)CCC=C(C)C)nn1 [Compound 3m, Methyl ((1-(3,7-Dimethylocta-2,6-Dien-1-yl)-1H-1,2,3-Triazol-4-yl)Methyl)-L-Prolinate]
- IC50 [2, 4]: > 0.1 mM
- Effect on parasite growth at the maximum concentration ([2]; epimastigotes): did not affect the parasite growth; also recorded: inactive

SMILES: COC(=O)[C@@H]1CCCN1Cc1cn(C/C=C(\C)CC/C=C(\C)CCC=C(C)C)nn1 [Compound 3n, Methyl ((1-((2E,6E)-3,7,11-Trimethyldodeca-2,6,10-Trien-1-yl)-1H-1,2,3-Triazol-4-yl)Methyl)-L-Prolinate]
- Proline uptake inhibition (in words) (L-proline transporter): complete inhibition; also recorded: markedly reduction of the internalized proline
- Times more active than T4C [2]: 18
- IC50 [2, 4]: < 0.05 mM
- IC50 [2, 5]: 0.0483 ± 0.00129 mM
- Selectivity index (IC50 Vero cells / IC50 T. cruzi epimastigotes) (Vero cells): 0.25
- IC50 (Vero cells): 14 µM

SMILES: COC(=O)[C@@H]1CCCN1Cc1cn(C/C=C(\C)CC/C=C(/C)CCC=C(C)C)nn1 [Compound 3o, Methyl ((1-((2E,6Z)-3,7,11-Trimethyldodeca-2,6,10-Trien-1-yl)-1H-1,2,3-Triazol-4-yl)Methyl)-L-Prolinate]
- IC50 [2, 4]: 0.0586 ± 0.00137 mM
- IC50 [2, 6]: 0.0596 mM

SMILES: COC(=O)[C@@H]1CCCN1Cc1cn(C/C=C(\C)CCCC(C)CCCC(C)CCCC(C)C)nn1 (stereo partly drawn) [Compound 3p, Methyl ((1-((E)-3,7,11,15-Tetramethylhexadec-2-en-1-yl)-1H-1,2,3-Triazol-4-yl)Methyl) -L-Prolinate]
- IC50 [2, 4]: 0.0483 mM
- IC50 [2, 5]: 0.0697 ± 0.00217 mM

SMILES: COC(=O)[C@@H]1CCCN1Cc1cn(CC=C(C)CCCC(C)CCCC(C)CCCC(C)C)nn1 (stereo partly drawn) [Compound 3q, Methyl ((1-(3,7,11,15-Tetramethylhexadec-2-en-1-yl)-1H-1,2,3-Triazol-4-yl)Methyl)-L-Prolinate]
- IC50 [2, 4]: 0.0483 ± 0.00581 mM

SMILES: O=C(O)[C@@H]1CSCN1 [Compound T4C, L-thiazolidine-4-carboxylic acid]
- IC50 ([1]; ref Magdaleno et al., 2009, read-out: IC50 on T. cruzi epimastigotes): 890 µM
